Reference: US20220017491A1, “COMPOUND INHIBITING YAP-TEAD BINDING, AND PHARMACEUTICAL COMPOSITION FOR PREVENTING OR TREATING CANCER, COMPRISING COMPOUND AS ACTIVE INGREDIENT” (KOREA RESEARCH INSTITUTE OF CHEMICAL TECHNOLOGY, priority 2018, published 2022)

Columns and labels:
YAP-TEAD = assay: Luciferase assay of YAP-TEAD binding inhibition (TEAD luciferase reporter 8XGTIIC in HEK293T cells); format: cell-based; conditions: 10 μM, 24 hours, luciferase normalized with β-galactosidase
Experimental: A Luciferase assay which allows an inhibition degree of YAP-TEAD, previously reported in Cancers 2018, 10(5), 140, was used to measure an in vitro binding inhibition rate of YAP-TEAD.
HEK293T cells were purchased from American Type Culture Collection and incubated in DMEM media containing 10% FBS, L-glutamine, and penicillin/streptomycin. The HEK293T cells were seeded in a 24 well plate at a density of 1×10^5, and coated with polyethyleneamine (10 μg/mL). These cells were transfected with 8XGTIIC-luciferase (Addgene reference 34615) which is TEAD luciferase reporter plasmid and control β-galactosidase plasmid CMV-β-Gal using a lipofectamine 2000 reagent (Life Technologies, Inc.) according to the manufacturer's manual. Thereafter, the compound of the present invention was treated at a concentration of 10 μM for 24 hours, the cells were lysed using a Reporter lysis buffer (Promega, France), luciferase activity was read with a Mithras LB940 plate reader, and then normalization was performed with β-galactosidase.

HT29 cells = assay: Proliferation assay for HT29 colorectal cancer cells (CellTiter-Glo cell viability); format: cell-based; conditions: Homo sapiens, HT-29; HT29 colorectal cancer cell line, 72 hours, ATP detection
Experimental: HT-29 which is a commercially available colorectal cancer cell line was treated with trypsin-EDTA, incubated, and seeded in a 96 well plate. […] The treated cells were incubated for further 72 hours and cell viability was measured by an ATP detection method (CellTiter-Glo LuminescentCell Viability Assay, Promega).
In order to confirm the anticancer effect of the compounds according to the present invention, a proliferation assay for HT29 cells which are a colorectal cancer cell line was performed by the above method, and IC50 values as a result are listed in the following Table 4: […]

[1] = system: AOM/DSS-induced colorectal cancer; assay: Anticancer activity in AOM/DSS orthotopic syngeneic mouse model; format: in vivo, B6 mouse; conditions: intraperitoneally for three weeks; intestinal tissue FACS; FIG. 3
Experimental: In order to measure an anticancer effect in the state of immunity existing in a large intestine, a conventionally known AOM/DSS model was used to measure anticancer activity (J. Vis. Exp. (67), e4100 10.3791/4100, Cell Death & Dis. 2018, 9, 153).
A B6 mouse was adapted to an animal room for one week and then azoxymethane (AOM) was injected intraperitoneally at 10 mg/kg. After one week, the B6 mouse was supplied with a 2.5% dextran sulfate sodium (DSS) solution for one week and alternatively supplied with fresh water for two weeks, which was repeated three time, thereby causing colorectal cancer. After colorectal cancer was caused, the YAP-TEAD inhibition compound 17 of the present invention was injected intraperitoneally at 50 mg/kg, five times a week, for three weeks. After the dosing period was over, an intestine tissue was surgically isolated and the number and size of cancer tissue in the intestine tissue were measured and quantitatively analyzed, and the results are illustrated in FIGS. 1 to 3.
In addition, in order to confirm a ratio of Treg cells which play an important role in immunosuppression in cancer tissues, FACS analysis was performed. […]

| IC50 (HT29 cells) [µM] | SMILES | Inhibition(%) (YAP-TEAD) | Treg cells in cancer tissue (FACS, CD4 and Fop3) [1] |
| --- | --- | --- | --- |
| 6.91 | COCCCN1C(=O)c2cccc3c(NC(=O)C4CCCCN4S(=O)(=O)c4cccs4)ccc1c23 (centres unmarked) [Compound 17] | 78 | Treg cell decrease was confirmed |
| 12 | CN(CCCN1C(=O)c2cccc3c(NC(=O)C4CCCCN4S(=O)(=O)c4cccs4)ccc1c23)S(C)(=O)=O (centres unmarked) [Compound 117] | 85 | – |

The remaining lines, values behind:

| SMILES | IC50 (HT29 cells) [µM] | Inhibition(%) (YAP-TEAD) | Treg cells in cancer tissue (FACS, CD4 and Fop3) [1] |
| --- | --- | --- | --- |
| COCCCN1C(=O)c2cccc3c(NC(=O)C4CCCCN4S(=O)(=O)c4cc5c(s4)CCCC5)ccc1c23 (centres unmarked) [Compound 84] | 8.2 | 83 | – |
| COCCCN1C(=O)c2cccc3c(NC(=O)C4CCCCN4S(=O)(=O)c4ccc(-c5ccccn5)s4)ccc1c23 (centres unmarked) [Compound 118] | 2.9 | 84 | – |
| COCCCN1C(=O)c2cccc3c(NC(=O)C4CCCN(S(=O)(=O)c5ccc(OCCOC)c(C)c5)C4)ccc1c23 (centres unmarked) [Compound 122] | 6.5 | 68 | – |
